Counter-ions that a name gives are not always drawn. Like-named read-outs stand apart in the source and are kept apart here.
Biological target: T1, recombinant full-length USP7 (Homo sapiens, UniProt Q93009)
T1 construct: A 25 μl reaction volume containing recombinant full-length USP7 (62 pM)
Experiment: USP7-mediated ubiquitin-rhodamine cleavage assay
Type: biochemical
Conditions: recombinant full-length USP7 62 pM, ubiquitin-rhodamine 100 nM, 1 hour reaction at room temperature
Method in brief: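 Enzyme 62 pM; HEPES pH 7.3/150 mM NaCl/1 mM TCEP/125 μg/ml BSA; 1% DMSO; 30 min cpd preinc RT; Ub-rhodamine 100 nM, 1 h RT, dark; acetic acid stop; fluorescence; IC50 4-param fit.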

[1] = 30-minute pre-incubation, read-out: Potency (USP7 IC50)
[2] = 30-minute incubation with compound, read-out: Potency: USP7 IC50

T1 sequence (Q93009 whole entry): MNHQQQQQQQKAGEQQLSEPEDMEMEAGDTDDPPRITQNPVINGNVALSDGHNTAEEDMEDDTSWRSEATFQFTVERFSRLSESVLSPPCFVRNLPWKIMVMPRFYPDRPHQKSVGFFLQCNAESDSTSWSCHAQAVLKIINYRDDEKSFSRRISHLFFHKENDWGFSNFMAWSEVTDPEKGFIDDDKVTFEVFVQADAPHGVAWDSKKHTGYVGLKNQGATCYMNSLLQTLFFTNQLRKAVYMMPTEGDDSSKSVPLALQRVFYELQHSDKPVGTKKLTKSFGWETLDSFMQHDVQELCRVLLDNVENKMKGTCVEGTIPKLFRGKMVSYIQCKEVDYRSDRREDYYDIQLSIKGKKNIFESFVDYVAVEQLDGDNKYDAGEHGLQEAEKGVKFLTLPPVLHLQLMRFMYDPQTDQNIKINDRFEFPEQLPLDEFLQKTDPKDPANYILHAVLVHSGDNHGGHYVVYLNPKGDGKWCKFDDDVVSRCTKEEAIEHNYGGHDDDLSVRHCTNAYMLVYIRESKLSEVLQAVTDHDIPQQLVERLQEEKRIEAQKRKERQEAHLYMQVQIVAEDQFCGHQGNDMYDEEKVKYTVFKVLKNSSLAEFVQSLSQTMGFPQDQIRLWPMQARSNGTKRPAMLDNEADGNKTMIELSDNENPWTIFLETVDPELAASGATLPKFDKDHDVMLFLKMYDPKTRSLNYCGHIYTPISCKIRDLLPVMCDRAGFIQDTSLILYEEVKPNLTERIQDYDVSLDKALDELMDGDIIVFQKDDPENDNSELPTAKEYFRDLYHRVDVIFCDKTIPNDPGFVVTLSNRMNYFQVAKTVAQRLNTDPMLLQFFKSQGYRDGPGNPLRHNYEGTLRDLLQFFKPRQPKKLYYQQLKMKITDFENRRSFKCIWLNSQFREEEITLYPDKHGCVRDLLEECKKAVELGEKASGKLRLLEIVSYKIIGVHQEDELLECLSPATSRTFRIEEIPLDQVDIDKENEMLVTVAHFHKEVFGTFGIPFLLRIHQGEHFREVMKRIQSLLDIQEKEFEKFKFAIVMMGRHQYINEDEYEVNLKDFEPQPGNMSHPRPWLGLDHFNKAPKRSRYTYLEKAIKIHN

IC50 [1] | IC50 [2] | Compound | also measured
< 1 µM |  | COC(=O)[C@@H]1C[C@H](Oc2c(C)cc(Cl)cc2-c2ccnc3cc(Cn4c(=O)ccn(CC(F)(F)F)c4=O)sc23)CN1 [Example 652, methyl (2S,4S)-4-[4-chloro-2-[2-[[2,6-dioxo-3-(2,2,2-trifluoroethyl)pyrimidin-1-yl]methyl]thieno[3,2-b]pyridin-7-yl]-6-methyl-phenoxy]pyrrolidine-2-carboxylate] | 
< 1 µM |  | Cc1cc(Cl)cc(-c2ccnc3cc(Cn4c(=O)ccn(C)c4=O)sc23)c1O[C@@H]1C[C@@H]2COCCN2C1 [Example 502, 3-[[7-[2-[[(7R,8aR)-3,4,6,7,8,8a-hexahydro-1H-pyrrolo[2,1-c][1,4]oxazin-7-yl]oxy]-5-chloro-3-methyl-phenyl]thieno[3,2-b]pyridin-2-yl]methyl]-1-methyl-pyrimidine-2,4-dione] | 
< 1 µM |  | COCCN1C[C@H](C)[C@H](Oc2c(C)cc(Cl)cc2-c2ccnc3cc(Cn4c(=O)ccn(CC(F)(F)F)c4=O)sc23)C1 [Example 645, 3-[[7-[5-chloro-2-[(3S,4S)-1-(2-methoxyethyl)-4-methyl-pyrrolidin-3-yl]oxy-3-methyl-phenyl]thieno[3,2-b]pyridin-2-yl]methyl]-1-(2,2,2-trifluoroethyl)pyrimidine-2,4-dione] | 
< 1 µM |  | Cc1cc(Cl)cc(-c2ccnc3cc(Cn4c(=O)ccn(C(C)C)c4=O)sc23)c1O[C@H]1CCCNC1 [Example 447, 3-[[7-[5-chloro-3-methyl-2-[[(3S)-3-piperidyl]oxy]phenyl]thieno[3,2-b]pyridin-2-yl]methyl]-1-isopropyl-pyrimidine-2,4-dione] | 
 | < 1 µM | Cc1cc(Cl)cc(-c2ccnc3cc(CN4C(=O)C5C(C4=O)C5(C)C)sc23)c1O[C@@H]1C[C@@H]2C[C@H]1N(C)C2 (stereo partly drawn) [Example 333, 3-[[7-[5-chloro-3-methyl-2-[[(1S,4R,5R)-3-methyl-3-azabicyclo[2.2.1]heptan-5-yl]oxy]phenyl]thieno[3,2-b]pyridin-2-yl]methyl]-6,6-dimethyl-3-azabicyclo[3.1.0]hexane-2,4-dione] | 
 | 1 to 10 µM | CCC(O)c1cc2nccc(-c3cc(Cl)cc(C)c3O[C@H]3CCNC3)c2s1 (stereo partly drawn) [Example 50, 1-(7-(5-Chloro-3-methyl-2-(((S)-pyrrolidin-3-yl)oxy)phenyl)thieno[3,2-b]pyridin-2-yl)propan-1-ol] | 
 |  | COCC1(N)CC(Oc2c(C)cc(Cl)cc2-c2ccnc3cc(Cn4c(=O)ccn(CC(F)(F)F)c4=O)sc23)C1 (stereo not shown) [Example 699, 3-[[7-[2-[3-amino-3-(methoxymethyl)cyclobutoxy]-5-chloro-3-methyl-phenyl]thieno[3,2-b]pyridin-2-yl]methyl]-1-(2,2,2-trifluoroethyl)pyrimidine-2,4-dione] | IC50 (30-minute incubation, read-out: Potency (USP7 IC50)): < 1 µM
 | < 1 µM | Cc1cc(Cl)cc(-c2ccnc3cc(CN4C(=O)CCC4=O)sc23)c1O[C@@H]1CNC[C@@H]1N=[N+]=[N-] [Example 83, 1-((7-(2-(((3R,4S)-4-Azidopyrrolidin-3-yl)oxy)-5-chloro-3-methylphenyl)thieno[3,2-b]pyridin-2-yl)methyl)pyrrolidine-2,5-dione] | 
 | < 1 µM | Cc1cc(Cl)cc(-c2ccnc3cc(CN4C(=O)CCC4=O)sc23)c1O[C@@H]1CNC[C@@H]1C(F)F [Example 111, 1-((7-(5-Chloro-2-(((3S,4S)-4-(difluoromethyl)pyrrolidin-3-yl)oxy)-3-methylphenyl)thieno[3,2-b]pyridin-2-yl)methyl)pyrrolidine-2,5-dione] | 
< 1 µM |  | Cc1cc(Cl)cc(-c2ncnc3cc(Cn4c(=O)ccn(CC(F)(F)F)c4=O)sc23)c1O[C@@H]1CNC[C@@H]1F [Example 525, 3-[[4-[5-chloro-2-[(3R,4S)-4-fluoropyrrolidin-3-yl]oxy-3-methyl-phenyl]thieno[3,2-d]pyrimidin-6-yl]methyl]-1-(2,2,2-trifluoroethyl)pyrimidine-2,4-dione] | 
 | < 1 µM | Cc1cc(Cl)cc(-c2ccnc3cc(CN4C(=O)C5CC5C4=O)sc23)c1O[C@@H]1CCN(C)C[C@@H]1C (stereo partly drawn) [Example 326, 3-[[7-[5-chloro-2-[[(3S,4R)-1,3-dimethyl-4-piperidyl]oxy]-3-methyl-phenyl]thieno[3,2-b]pyridin-2-yl]methyl]-3-azabicyclo[3.1.0]hexane-2,4-dione] | 
 | 1 to 10 µM | Cc1cc(Cl)cc(-c2ccnc3cc(CN4C(=O)CCC4=O)sc23)c1OC1CCN(C2COC2)CC1 [Example 207, 1-((7-(5-Chloro-3-methyl-2-((1-(oxetan-3-yl)piperidin-4-yl)oxy)phenyl)thieno[3,2-b]pyridin-2-yl)methyl)pyrrolidine-2,5-dione] | 
 | < 1 µM | Cc1cc(Cl)cc(-c2ncnc3cc(CN4C(=O)CCC4=O)sc23)c1O[C@H]1CCCNC1 [Example 230, (S)-1-((4-(5-Chloro-3-methyl-2-(piperidin-3-yloxy)phenyl)thieno[3,2-d]pyrimidin-6-yl)methyl)pyrrolidine-2,5-dione] | 
 | 1 to 10 µM | Cc1cc(Cl)cc(-c2ncnc3cc(CN4C(=O)CCCC4=O)sc23)c1OC1CCNCC1 [Example 259, 1-((4-(5-Chloro-3-methyl-2-(piperidin-4-yloxy)phenyl)thieno[3,2-d]pyrimidin-6-yl)methyl)piperidine-2,6-dione] | 
 | < 1 µM | CCN1CC[C@@H](Oc2c(C)cc(Cl)cc2-c2ccnc3cc(CN4C(=O)C5CC5C4=O)sc23)[C@@H](C)C1 (stereo partly drawn) [Example 325, 3-[[7-[5-chloro-2-[[(3S,4R)-1-ethyl-3-methyl-4-piperidyl]oxy]-3-methyl-phenyl]thieno[3,2-b]pyridin-2-yl]methyl]-3-azabicyclo[3.1.0]hexane-2,4-dione] | 
< 1 µM |  | Cc1cc(Cl)cc(-c2ccnc3cc(Cn4c(=O)ccn(C)c4=O)sc23)c1O[C@H]1CCN(C(C)C)C[C@@H]1F [Example 473, 3-[[7-[5-chloro-2-[[(3S,4S)-3-fluoro-1-isopropyl-4-piperidyl]oxy]-3-methyl-phenyl]thieno[3,2-b]pyridin-2-yl]methyl]-1-methyl-pyrimidine-2,4-dione; 2,2,2-trifluoroacetic acid] | 
< 1 µM |  | O=C1CCC(=O)N1Cc1cc2nccc(-c3cc(Cl)cc(C(F)F)c3O[C@H]3CCCNC3)c2s1 [Example 432, 1-[[7-[5-chloro-3-(difluoromethyl)-2-[[(3S)-3-piperidyl]oxy]phenyl]thieno[3,2-b]pyridin-2-yl]methyl]pyrrolidine-2,5-dione dihydrochloride] | 
 | 10 to 30 µM | Cc1cc(Cl)cc(-c2ccnc3cc(CO)sc23)c1O[C@@H]1CN[C@@H](CO)C1 [Example 76, (7-(5-Chloro-2-(((3S,5R)-5-(hydroxymethyl)pyrrolidin-3-yl)oxy)-3-methylphenyl)thieno[3,2-b]pyridin-2-yl)methanol] | 
 | 1 to 10 µM | Cc1cc(Cl)cc(-c2ccnc3cc(CN4C(=O)CCCC4C(F)(F)F)sc23)c1O[C@@H]1CNC[C@@H]1F (stereo partly drawn) [Example 103, 1-((7-(5-Chloro-2-(((3R,4S)-4-fluoropyrrolidin-3-yl)oxy)-3-methylphenyl)thieno[3,2-b]pyridin-2-yl)methyl)-6-(trifluoromethyl)piperidin-2-one] | 
 | 10 to 30 µM | CCC(O)c1cc2nccc(-c3cc(Cl)cc(C)c3O[C@H]3CCCN(C)C3)c2s1 (stereo partly drawn) [Example 186, 1-(7-(5-Chloro-3-methyl-2-(((S)-1-methylpiperidin-3-yl)oxy)phenyl)thieno[3,2-b]pyridin-2-yl)propan-1-ol] | 
 | 10 to 30 µM | Cc1cc(Cl)cc(-c2ccnc3ccsc23)c1O[C@H]1CCCNC1 [Example 167, (S)-7-(5-Chloro-3-methyl-2-(piperidin-3-yloxy)phenyl)thieno[3,2-b]pyridine] | 
 | < 1 µM | Cc1cc(Cl)cc(-c2ccnc3cc(CN4C(=O)C5CCCCN5C4=O)sc23)c1OC1CCNCC1 (stereo not shown) [Example 228, 2-((7-(5-Chloro-3-methyl-2-(piperidin-4-yloxy)phenyl)thieno[3,2-b]pyridin-2-yl)methyl)tetrahydroimidazo[1,5-a]pyridine-1,3(2H,5H)-dione] | 
 | < 1 µM | Cc1cc(Cl)cc(-c2ccnc3cc(CN4C(=O)CC(C)(C)CC4=O)sc23)c1OC1CCNCC1 [Example 258, 1-((7-(5-Chloro-3-methyl-2-(piperidin-4-yloxy)phenyl)thieno[3,2-b]pyridin-2-yl)methyl)-4,4-dimethylpiperidine-2,6-dione] | 
 | 1 to 10 µM | CCC(O)c1cc2nccc(-c3cc(Cl)cc(C)c3OCC3CNC3)c2s1 (stereo not shown) [Example 14, 1-(7-(2-(Azetidin-3-ylmethoxy)-5-chloro-3-methylphenyl)thieno[3,2-b]pyridin-2-yl)propan-1-ol] | 
 | 1 to 10 µM | Cc1cc(Cl)cc(-c2ccnc3cc(CO)sc23)c1O[C@@H]1CNC[C@@H]1N=[N+]=[N-] [Example 191, (7-(2-(((3R,4S)-4-Azidopyrrolidin-3-yl)oxy)-5-chloro-3-methylphenyl)thieno[3,2-b]pyridin-2-yl)methanol] | 

Compound | IC50 [1] | IC50 [2] | also measured
Cc1cc(Cl)cc(-c2ccnc3cc(CN4C(=O)CCC4=O)sc23)c1OC1CC(N)C1 (stereo not shown) [Example 437, 1-[[7-[2-(3-aminocyclobutyoxy)-5-chloro-3-methyl-phenyl]thieno[3,2-b]pyridin-2-yl]methyl]pyrrolidine-2,5-dione; 2,2,2-trifluoroacetic acid] | < 1 µM |  | 
Cc1cc([N+](=O)[O-])cc(-c2ccnc3cc(Cn4c(=O)ccn(CC(F)(F)F)c4=O)sc23)c1Oc1cn[nH]c1 [Example 614] | < 1 µM |  | 
Cc1cc(Cl)cc(-c2ccnc3cc(CN4C(=O)CCC4=O)sc23)c1OC1CC(C)(N)C1 (stereo not shown) [Example 443, 1-[[7-[2-(3-amino-3-methyl-cyclobutoxy)-5-chloro-3-methyl-phenyl]thieno[3,2-b]]pyridin-2-yl]methyl]pyrrolidine-2,5-dione dihydrochloride] | < 1 µM |  | 
